The Kinase Knowledgebase extract (Sharma et al. 2016)

Target: EGFR (human) (UniProt P00533)
Sequence (P00533 whole entry, looked up): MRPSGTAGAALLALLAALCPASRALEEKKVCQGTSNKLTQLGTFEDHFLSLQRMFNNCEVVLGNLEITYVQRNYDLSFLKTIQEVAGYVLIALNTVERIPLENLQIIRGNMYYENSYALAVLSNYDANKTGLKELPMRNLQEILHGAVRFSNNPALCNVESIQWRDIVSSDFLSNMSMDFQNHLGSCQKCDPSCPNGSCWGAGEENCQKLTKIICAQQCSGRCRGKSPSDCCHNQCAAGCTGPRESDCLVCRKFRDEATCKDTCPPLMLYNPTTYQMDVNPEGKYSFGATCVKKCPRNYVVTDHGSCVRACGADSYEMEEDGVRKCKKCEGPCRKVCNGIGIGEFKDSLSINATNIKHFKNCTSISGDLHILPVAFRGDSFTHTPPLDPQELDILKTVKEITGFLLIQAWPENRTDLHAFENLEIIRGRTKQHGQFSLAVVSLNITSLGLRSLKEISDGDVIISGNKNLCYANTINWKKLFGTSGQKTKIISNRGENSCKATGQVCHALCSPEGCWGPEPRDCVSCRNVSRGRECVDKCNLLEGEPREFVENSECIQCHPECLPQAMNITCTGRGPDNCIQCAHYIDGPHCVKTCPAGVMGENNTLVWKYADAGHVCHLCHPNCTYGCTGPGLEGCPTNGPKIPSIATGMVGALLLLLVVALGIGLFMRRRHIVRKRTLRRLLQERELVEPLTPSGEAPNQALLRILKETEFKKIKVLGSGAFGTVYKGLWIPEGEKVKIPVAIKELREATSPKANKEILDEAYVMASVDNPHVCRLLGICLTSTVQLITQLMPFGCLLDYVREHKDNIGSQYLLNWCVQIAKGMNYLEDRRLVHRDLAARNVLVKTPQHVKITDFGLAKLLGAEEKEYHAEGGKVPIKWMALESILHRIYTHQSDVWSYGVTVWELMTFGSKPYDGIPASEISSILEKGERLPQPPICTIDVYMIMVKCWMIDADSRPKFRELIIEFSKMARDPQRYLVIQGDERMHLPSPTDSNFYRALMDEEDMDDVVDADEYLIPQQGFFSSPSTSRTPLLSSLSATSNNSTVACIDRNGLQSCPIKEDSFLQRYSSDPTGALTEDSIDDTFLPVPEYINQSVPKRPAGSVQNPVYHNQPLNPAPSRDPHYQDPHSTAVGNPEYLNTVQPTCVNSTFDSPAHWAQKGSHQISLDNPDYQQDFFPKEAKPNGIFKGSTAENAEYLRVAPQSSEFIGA

| Compound | IC50 [µM] |
| --- | --- |
| COc1cc2ncnc(Nc3ccc(NC(=O)Nc4ccc(F)c(Cl)c4)cc3)c2cc1OC | > 10 |
| COc1cc2ncnc(Oc3ccc(NC(=O)Nc4ccc(Br)cc4)cc3)c2cc1OC | > 10 |
| COc1cc2ncnc(Oc3cccc(NC(=O)Nc4ccccc4)c3)c2cc1OC | > 10 |
| COc1cc2ncnc(Oc3ccc(NC(=O)Nc4ccc5ccccc5c4)cc3)c2cc1OC | > 10 |
| CCOC(=O)Nc1ccc(Nc2ncnc3cc(OCCN(CC)CC)c(OC)cc23)cc1C | > 10 |
| CCCC(=O)Nc1ccc(Nc2ncnc3cc(OC)c(OC)cc23)cc1C | > 10 |
| COc1cc2ncnc(Oc3ccc(NC(=O)NC4CCCCC4)cc3)c2cc1OC | > 10 |
| COc1cc2ncnc(Oc3ccc(NC(=O)Nc4ccc(F)cc4F)cc3)c2cc1OC | > 10 |
| COc1cc2ncnc(Nc3ccc(NC(=O)Nc4ccccc4)cc3)c2cc1OC | > 10 |
| CCOC(=O)Nc1ccc(Nc2ncnc3cc(OC)c(OC)cc23)cc1 | > 10 |
| CCOC(=O)Nc1ccc(Oc2ncnc3cc(OC)c(OC)cc23)cc1 | > 10 |
| CCOC(=O)Nc1ccc(Nc2ncnc3cc(OC)c(OCCN(CC)CC)cc23)cc1C | > 10 |
| COc1cc2ncnc(Oc3ccc(NC(=O)Nc4ccccc4)cc3)c2cc1OC | > 10 |
| COc1cc2ncnc(Oc3ccc(NC(=O)Nc4ccc(F)c(Cl)c4)cc3)c2cc1OC | > 10 |
| COc1ccc(NC(=O)Nc2cccc(Oc3ncnc4cc(OC)c(OC)cc34)c2)cc1 | > 10 |
| COc1cc2ncnc(Oc3ccc(F)c(Cl)c3)c2cc1OC | > 10 |
| COC(=O)Nc1ccc(Oc2ncnc3cc(OC)c(OC)cc23)cc1 | > 10 |
| CCCCNC(=O)Nc1ccc(Oc2ncnc3cc(OC)c(OC)cc23)cc1 | > 10 |
| CCCCOc1cc2c(Nc3ccc(NC(=O)OCC)c(C)c3)ncnc2cc1OCCN(CC)CC | > 10 |
| CCCCC(=O)Nc1ccc(Nc2ncnc3cc(OC)c(OC)cc23)cc1C | > 10 |
| CCOC(=O)Nc1ccc(Nc2ncnc3cc(OCCN(CC)CC)c(OC)cc23)cc1Cl | > 10 |
| COc1ccc(NC(=O)Nc2ccc(Oc3ncnc4cc(OC)c(OC)cc34)cc2)cc1 | > 10 |
